± gives the uncertainty stated by the source.
Assay: xn = mol fraction of the nth substance listed

CCCCCCO + CCCCCCCCCCCC
298.15 K, 101 kPa
Details | viscosity [mPa·s]
x2 = 0.0555 | 3.93 ± 0.07
x2 = 0.0999 | 3.52 ± 0.06
x2 = 0.1555 | 3.06 ± 0.06
x2 = 0.1999 | 2.74 ± 0.06
x2 = 0.2554 | 2.38 ± 0.06
x2 = 0.2999 | 2.12 ± 0.06
x2 = 0.3555 | 1.85 ± 0.06
x2 = 0.3998 | 1.66 ± 0.06
x2 = 0.4555 | 1.47 ± 0.06
x2 = 0.4999 | 1.34 ± 0.06
x2 = 0.5554 | 1.21 ± 0.06
x2 = 0.5998 | 1.14 ± 0.06
x2 = 0.6554 | 1.07 ± 0.06
x2 = 0.6999 | 1.04 ± 0.06
x2 = 0.7555 | 1.02 ± 0.06
x2 = 0.7997 | 1.03 ± 0.06
x2 = 0.8555 | 1.06 ± 0.06
x2 = 0.8998 | 1.09 ± 0.06
x2 = 0.9555 | 1.15 ± 0.06

O=C1CCCCC1 + CCCCCCCCCCCC
viscosity [mPa·s], 101.33 kPa
Details | x1 = 0.1085 | x1 = 0.1979 | x1 = 0.3049 | x1 = 0.4052 | x1 = 0.5049 | x1 = 0.6012 | x1 = 0.7012 | x1 = 0.8014 | x1 = 0.9008
298.15 K | 1.348 ± 0.009 | 1.352 ± 0.009 | 1.368 ± 0.009 | 1.393 ± 0.009 | 1.42 ± 0.01 | 1.474 ± 0.01 | 1.533 ± 0.01 | 1.614 ± 0.011 | 1.75 ± 0.013
303.15 K | 1.237 ± 0.008 | 1.238 ± 0.008 | 1.252 ± 0.009 | 1.272 ± 0.009 | 1.302 ± 0.009 | 1.344 ± 0.009 | 1.398 ± 0.009 | 1.469 ± 0.01 | 1.623 ± 0.011
308.15 K | 1.135 ± 0.008 | 1.139 ± 0.008 | 1.151 ± 0.008 | 1.171 ± 0.008 | 1.199 ± 0.008 | 1.232 ± 0.008 | 1.281 ± 0.009 | 1.349 ± 0.009 | 1.483 ± 0.01

CC(=O)CC(C)C + CCCCCCCCCCO
viscosity [mPa·s], 100 kPa
Details | x1 = 0.0846 | x1 = 0.1569 | x1 = 0.2402 | x1 = 0.3455 | x1 = 0.4437 | x1 = 0.5617 | x1 = 0.6591 | x1 = 0.7447 | x1 = 0.8561 | x1 = 0.9486
293.15 K | 12.8 ± 1 | 11.5 ± 0.9 | 10.21 ± 0.82 | 8.72 ± 0.7 | 7.39 ± 0.6 | 5.89 ± 0.48 | 4.69 ± 0.38 | 3.64 ± 0.29 | 2.29 ± 0.19 | 1.18 ± 0.1
303.15 K | 8.66 ± 0.7 | 7.8 ± 0.63 | 6.94 ± 0.56 | 5.94 ± 0.48 | 5.05 ± 0.41 | 4.05 ± 0.33 | 3.24 ± 0.26 | 2.55 ± 0.21 | 1.65 ± 0.13 | 0.92 ± 0.08
313.15 K | 6.09 ± 0.49 | 5.5 ± 0.44 | 4.91 ± 0.4 | 4.21 ± 0.34 | 3.59 ± 0.29 | 2.9 ± 0.23 | 2.34 ± 0.19 | 1.85 ± 0.15 | 1.23 ± 0.1 | 0.74 ± 0.06
323.15 K | 4.44 ± 0.36 | 4.02 ± 0.32 | 3.58 ± 0.29 | 3.08 ± 0.25 | 2.64 ± 0.21 | 2.15 ± 0.17 | 1.75 ± 0.14 | 1.4 ± 0.11 | 0.96 ± 0.08 | 0.61 ± 0.05

CC(=O)CC(C)C + CCCCCCCCCO
viscosity [mPa·s], 100 kPa
Details | x1 = 0.0834 | x1 = 0.1721 | x1 = 0.2398 | x1 = 0.3469 | x1 = 0.4365 | x1 = 0.5577 | x1 = 0.6608 | x1 = 0.7339 | x1 = 0.8594 | x1 = 0.9502
293.15 K | 9.91 ± 0.8 | 8.52 ± 0.68 | 7.62 ± 0.61 | 6.42 ± 0.52 | 5.48 ± 0.44 | 4.28 ± 0.34 | 3.31 ± 0.27 | 2.64 ± 0.21 | 1.6 ± 0.13 | 0.93 ± 0.08
303.15 K | 6.85 ± 0.55 | 5.94 ± 0.48 | 5.34 ± 0.43 | 4.49 ± 0.36 | 3.86 ± 0.31 | 3.05 ± 0.25 | 2.42 ± 0.2 | 1.99 ± 0.16 | 1.27 ± 0.1 | 0.78 ± 0.06
313.15 K | 4.92 ± 0.4 | 4.29 ± 0.34 | 3.87 ± 0.31 | 3.27 ± 0.26 | 2.82 ± 0.23 | 2.27 ± 0.18 | 1.82 ± 0.15 | 1.51 ± 0.12 | 1 ± 0.08 | 0.65 ± 0.05
323.15 K | 3.63 ± 0.29 | 3.18 ± 0.26 | 2.88 ± 0.23 | 2.45 ± 0.2 | 2.13 ± 0.17 | 1.73 ± 0.14 | 1.4 ± 0.11 | 1.18 ± 0.1 | 0.81 ± 0.07 | 0.55 ± 0.05

CC(=O)CC(C)C + CCCCCCCCO
viscosity [mPa·s], 100 kPa
Details | x1 = 0.0818 | x1 = 0.1616 | x1 = 0.2492 | x1 = 0.3517 | x1 = 0.4411 | x1 = 0.5629 | x1 = 0.6505 | x1 = 0.7501 | x1 = 0.8518 | x1 = 0.9519
293.15 K | 7.68 ± 0.62 | 6.48 ± 0.52 | 5.45 ± 0.44 | 4.46 ± 0.36 | 3.71 ± 0.3 | 2.87 ± 0.23 | 2.32 ± 0.19 | 1.72 ± 0.14 | 1.2 ± 0.1 | 0.76 ± 0.06
303.15 K | 5.45 ± 0.44 | 4.69 ± 0.38 | 3.97 ± 0.32 | 3.27 ± 0.26 | 2.78 ± 0.22 | 2.19 ± 0.18 | 1.8 ± 0.15 | 1.37 ± 0.11 | 0.97 ± 0.08 | 0.65 ± 0.05
313.15 K | 4 ± 0.32 | 3.46 ± 0.28 | 2.97 ± 0.24 | 2.47 ± 0.2 | 2.1 ± 0.17 | 1.67 ± 0.13 | 1.4 ± 0.11 | 1.11 ± 0.09 | 0.82 ± 0.07 | 0.57 ± 0.05
323.15 K | 3 ± 0.24 | 2.63 ± 0.21 | 2.28 ± 0.18 | 1.92 ± 0.15 | 1.65 ± 0.13 | 1.34 ± 0.11 | 1.14 ± 0.09 | 0.93 ± 0.08 | 0.71 ± 0.06 | 0.5 ± 0.04
